Key:
[1] = test system: rabbit progesterone receptor (rbPR) and glucocorticoid receptor (rbGR); experiment: Receptor-binding assays, ratio of relative binding affinities rbPR/rbGR; details: ratio of relative binding affinities (RBA = EC50 of standard/EC50 of test compound x 100) for rbPR and rbGR
Experimental: Certain antiprogestins were tested in receptor-binding assays for their ability to bind rabbit progesterone receptor (rbPR) and glucocorticoid receptor (rbGR). Briefly, cytosol containing PR or GR were prepared in TEGMD buffer (10 mM Tris, pH 7.2, 1.5 mM EDTA, 0.2 mM sodium molybdate, 10% glycerol, 1 mM DTT) from uterus or thymus, respectively, of estradiol-primed immature rabbits. For PR binding, the cytosol was incubated with 6 nM 1,2-[^3H]progesterone (50.0 Ci/mmole) and competitors were added at concentrations from 2 to 100 nM. For binding to GR, the cytosol was incubated with 6 nM 6,7-[^3H]-dexamethasone (40 Ci/mmol) and test compounds were added at concentrations from 20 to 100 nM. After overnight incubation at 4 C, bound and unbound [^3H] steroids were separated by addition of dextran-coated charcoal and centrifugation at 2100×g for 15 min at 4 C. Supernatants containing the [3H]-steroid receptor complexes were decanted into vials containing 4 ml Optifluor (Packard Instrument Co.), vortexed, equilibrated in a liquid scintillation counter for 30 minutes and then counted for 2 minutes. The EC50 (Effective Concentration) for each standard curve and each of the compound curves was determined by entering the counting data into a four parameter sigmoidal computer program (RiaSmart® Immunoassay Data Reduction Program, Packard Instrument Co., Meriden, Conn.). Relative binding affinity (RBA) for each compound was calculated using the following equation: EC50 of standard/EC50 of test compound×100. The standards for the PR and GR assays were unlabeled progesterone and dexamethasone, respectively. The results of these experiments are summarized in Table 1, as a ratio of the relative binding affinities of each compound for the rbPR and rbGR receptors (rbPR/rbGR).

[2] = molecular target: T1, glucocorticoid receptor (rbGR) (Oryctolagus cuniculus, UniProt P59667); experiment: Glucocorticoid receptor binding / anti-glucocorticoid receptor activity; set-up: species or system rabbit
T1 construct: cytosol containing PR or GR were prepared in TEGMD buffer; from tissue; host or cells: thymus of estradiol-primed immature rabbits (cytosol)
T1 sequence (P59667 1-772): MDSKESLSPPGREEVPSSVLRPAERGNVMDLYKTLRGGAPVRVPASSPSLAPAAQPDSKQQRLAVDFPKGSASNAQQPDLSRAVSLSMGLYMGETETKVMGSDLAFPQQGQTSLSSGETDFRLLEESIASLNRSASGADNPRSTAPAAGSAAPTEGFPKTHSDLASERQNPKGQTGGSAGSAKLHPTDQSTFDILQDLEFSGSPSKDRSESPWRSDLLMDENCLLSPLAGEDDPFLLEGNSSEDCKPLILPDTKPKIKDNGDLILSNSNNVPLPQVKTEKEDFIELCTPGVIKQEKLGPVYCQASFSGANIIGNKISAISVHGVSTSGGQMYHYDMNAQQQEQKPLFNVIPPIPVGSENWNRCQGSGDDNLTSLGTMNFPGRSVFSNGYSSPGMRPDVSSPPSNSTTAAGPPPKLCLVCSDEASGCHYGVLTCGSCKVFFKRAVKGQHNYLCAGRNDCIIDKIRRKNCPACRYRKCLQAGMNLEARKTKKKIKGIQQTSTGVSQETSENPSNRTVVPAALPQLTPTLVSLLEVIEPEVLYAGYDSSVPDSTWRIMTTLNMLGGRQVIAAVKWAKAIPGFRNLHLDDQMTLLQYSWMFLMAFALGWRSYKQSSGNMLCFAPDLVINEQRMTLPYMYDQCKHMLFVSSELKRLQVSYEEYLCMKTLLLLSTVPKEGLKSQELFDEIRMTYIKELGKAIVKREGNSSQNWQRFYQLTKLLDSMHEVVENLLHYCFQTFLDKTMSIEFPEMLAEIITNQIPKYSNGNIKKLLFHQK
Experimental: Certain antiprogestins were tested in receptor-binding assays for their ability to bind rabbit progesterone receptor (rbPR) and glucocorticoid receptor (rbGR). […] For PR binding, the cytosol was incubated with 6 nM 1,2-[^3H]progesterone (50.0 Ci/mmole) and competitors were added at concentrations from 2 to 100 nM. For binding to GR, the cytosol was incubated with 6 nM 6,7-[^3H]-dexamethasone (40 Ci/mmol) and test compounds were added at concentrations from 20 to 100 nM. After overnight incubation at 4 C, bound and unbound [^3H] steroids were separated by addition of dextran-coated charcoal and centrifugation at 2100×g for 15 min at 4 C. Supernatants containing the [3H]-steroid receptor complexes were decanted into vials containing 4 ml Optifluor (Packard Instrument Co.), vortexed, equilibrated in a liquid scintillation counter for 30 minutes and then counted for 2 minutes. […] The standards for the PR and GR assays were unlabeled progesterone and dexamethasone, respectively.

[3] = Six month endometriosis study: estrogen concentrations and biomarkers of bone resorption; details: women
Experimental: Thirty-nine pre-menopausal adult women diagnosed with endometriosis were the subject of a six month study of Proellex™ (CDB-4124) in the treatment of endometriosis. The study included three dose levels of CDB-4124 as well as a positive control arm. The positive control was Lucrin®, a GnRH agonist, commonly used for the treatment of endometriosis (also known as Lupron®). CDB-4124 was administered in a double blinded fashion as a daily oral capsule at dosages of 12.5mg/day (n=2), 25mg/day (n=3) and 50mg/day (n=3). Another group (n=4) were injected with a slow release formulation of Lucrin® once per month as a positive control.

COCC(=O)[C@@]1(OC(C)=O)CC[C@H]2[C@@H]3CCC4=CC(=O)CCC4=C3[C@@H](c3ccc(N(C)C)cc3)C[C@@]21C [CDB-4124, 21-methoxy-17α-acetoxy-11β-(4 N,N-dimethylaminophenyl)-19-norpregna-4,9-diene-3,20-dione]
rbPR/rbGR [1]: 1.58 | anti-glucocorticoid receptor activity / glucocorticoid receptor binding [2]: minimal anti-glucocorticoid receptor activity | estrogen concentrations (mean) ([3]; all doses of CDB-4124 (12.5, 25, 50 mg/day)): > 40 pg/mL | biomarkers of bone resorption compared with baseline ([3]; three and six months of treatment): no significant changes

— US20090118253A1, “COMPOSITIONS AND METHODS FOR TREATING DYSFUNCTIONAL UTERINE BLEEDING” (REPROS THERAPEUTICS INC., priority 2007, published 2009)
